Test results: patent US20210369860A1, “FUNCTIONALIZED NANOPARTICLE FORMULATIONS FOR ORAL DRUG DELIVERY” (THE REGENTS OF THE UNIVERSITY OF COLORAD, priority 2018, published 2021)

Conditions: mouse, in vivo

CCCCCCCCCCCCCCCCCCN1C(=CC=CC=CC=CC2=[N+](CCCCCCCCCCCCCCCCCC)c3ccccc3C2(C)C)C(C)(C)c2ccccc21.[I-] [free DIR, 1,1′-Dioctadecyl-3,3,3′,3′-Tetramethylindotricarbo-cyanine Iodide]
IR signal in blood after IV injection: no signal was seen
